Experimental data reported in patent US20210045385A1, “PYRIDAZINONE-SUBSTITUTED KETOXIMES AS HERBICIDES” (FMC Corporation, priority 2018, published 2021).

Key:
Format in all cases: in vivo
[1] = test system: kochia (Bassia scoparia); test: Test C postemergence, visual plant response rating
Procedure, shortened: (§1)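 Compounds in a non-phytotoxic solvent with surfactant were applied as a directed soil spray preemergence or to 2–10 cm, one- to two-leaf plants postemergence, in loam–sand soil. After about 10 d in a greenhouse, injury was visually rated against untreated controls on a 0–100 scale (100 = complete control).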

[2] = test system: barnyardgrass (Echinochloa crus-galli); test: Test C postemergence, visual plant response rating
Procedure, shortened: as §1

[3] = test system: foxtail, giant (giant foxtail, Setaria faberi); test: Test C postemergence, visual plant response rating
Procedure, shortened: as §1

[4] = test system: Italian ryegrass (Lolium mutiflorum); test: Test C postemergence, visual plant response rating
Procedure, shortened: as §1

[5] = test system: pigweed (Amaranthus retroflexus); test: Test C postemergence, visual plant response rating
Procedure, shortened: as §1

[6] = test system: blackgrass (Alopecurus myosuroides); test: Test C postemergence, visual plant response rating
Procedure, shortened: as §1

[7] = test system: wheat (Triticum aestivum); test: Test C postemergence, visual plant response rating
Procedure, shortened: as §1

[8] = test system: ragweed (common ragweed, Ambrosia artemisiifolia); test: Test C postemergence, visual plant response rating
Procedure, shortened: as §1

[9] = test system: corn (Zea mays); test: Test C postemergence, visual plant response rating
Procedure, shortened: as §1

[10] = test system: galium (catchweed bedstraw, Galium aparine); test: Test C postemergence, visual plant response rating
Procedure, shortened: as §1

[11] = test system: kochia (Bassia scoparia); test: Test C preemergence, visual plant response rating; settings: Test C, 0 is no effect, 100 is complete control
Procedure, shortened: as §1

[12] = test system: barnyardgrass (Echinochloa crus-galli); test: Test C preemergence, visual plant response rating; settings: Test C, 0 is no effect, 100 is complete control
Procedure, shortened: as §1

[13] = test system: foxtail, giant (giant foxtail, Setaria faberi); test: Test C preemergence, visual plant response rating; settings: Test C, 0 is no effect, 100 is complete control
Procedure, shortened: as §1

[14] = test system: Italian ryegrass (Lolium mutiflorum); test: Test C preemergence, visual plant response rating; settings: Test C, 0 is no effect, 100 is complete control
Procedure, shortened: as §1

[15] = test system: pigweed (Amaranthus retroflexus); test: Test C preemergence, visual plant response rating; settings: Test C, 0 is no effect, 100 is complete control
Procedure, shortened: as §1

[16] = test system: ragweed (common ragweed, Ambrosia artemisiifolia); test: Test C preemergence, visual plant response rating; settings: Test C, 0 is no effect, 100 is complete control
Procedure, shortened: as §1

[17] = test system: barnyardgrass (Echinochloa crus-galli); test: Test D flooded paddy test, visual plant response rating; settings: 250 g ai/ha, scale 0 to 100 (0 no effect, 100 complete control), 13 to 15 d
Procedure, shortened: (§2)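 Plants were grown to the 2-leaf stage, pots flooded to 3 cm above soil, and compound applied directly into the paddy water, with the depth held throughout. After 13 to 15 d in a greenhouse, response was rated visually against untreated controls on a 0–100 scale (0 no effect, 100 complete control).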

[18] = test system: rice (Oryza sativa); test: as above; settings: 250 g ai/ha, scale 0 to 100 (0 no effect, 100 complete control), 13 to 15 d
Procedure, shortened: as §2

[19] = test system: duck salad (Heteranthera limosa); test: as above; settings: 250 g ai/ha, scale 0 to 100 (0 no effect, 100 complete control), 13 to 15 d
Procedure, shortened: as §2

[20] = test system: sedge umbrella (small-flower umbrella sedge, Cyperus difformis); test: as above; settings: 250 g ai/ha, scale 0 to 100 (0 no effect, 100 complete control), 13 to 15 d
Procedure, shortened: as §2

[21] = Test C, postemergence, 125 g ai/ha

Row | Compound | Kochia plant response rating (0 to 100 scale) ([1]; Postemergence, 31 g ai/ha) | Kochia plant response rating (0 to 100 scale) [1, 21] | Barnyardgrass plant response rating (0 to 100 scale) ([2]; Postemergence, 31 g ai/ha) | Barnyardgrass plant response rating (0 to 100 scale) [2, 21] | Foxtail, Giant plant response rating (0 to 100 scale) ([3]; Postemergence, 31 g ai/ha) | Foxtail, Giant plant response rating (0 to 100 scale) [3, 21] | Ryegrass, Italian plant response rating (0 to 100 scale) ([4]; Postemergence, 31 g ai/ha) | Ryegrass, Italian plant response rating (0 to 100 scale) [4, 21] | Pigweed plant response rating (0 to 100 scale) ([5]; Postemergence, 31 g ai/ha) | Pigweed plant response rating (0 to 100 scale) [5, 21] | Blackgrass plant response rating (0 to 100 scale) ([6]; Postemergence, 31 g ai/ha) | Blackgrass plant response rating (0 to 100 scale) [6, 21] | Wheat plant response rating (0 to 100 scale) ([7]; Postemergence, 31 g ai/ha) | Wheat plant response rating (0 to 100 scale) [7, 21] | Ragweed plant response rating (0 to 100 scale) ([8]; Postemergence, 31 g ai/ha) | Ragweed plant response rating (0 to 100 scale) [8, 21] | Corn plant response rating (0 to 100 scale) ([9]; Postemergence, 31 g ai/ha) | Corn plant response rating (0 to 100 scale) [9, 21] | Galium plant response rating (0 to 100 scale) ([10]; Postemergence, 31 g ai/ha) | Galium plant response rating (0 to 100 scale) [10, 21] | also measured
1 | CO/N=C(/c1ccc(F)c(Cl)c1)c1c(O)c(C)nn(C)c1=O [Compound 218] | 10 | 30 | 0 | 10 | 0 | 0 | 40 | 60 | 20 | 60 | 0 | 0 | 0 | 0 | 0 | 10 | 0 | 0 | 50 | 80 | Kochia plant response rating (0 to 100 scale) ([11]; 31 g ai/ha): 0; Kochia plant response rating (0 to 100 scale) ([11]; 125 g ai/ha): 0; Barnyardgrass plant response rating (0 to 100 scale) ([12]; 31 g ai/ha): 0; Barnyardgrass plant response rating (0 to 100 scale) ([12]; 125 g ai/ha): 0; Foxtail, Giant plant response rating (0 to 100 scale) ([13]; 31 g ai/ha): 0; Foxtail, Giant plant response rating (0 to 100 scale) ([13]; 125 g ai/ha): 0; Ryegrass, Italian plant response rating (0 to 100 scale) ([14]; 31 g ai/ha): 0; Ryegrass, Italian plant response rating (0 to 100 scale) ([14]; 125 g ai/ha): 10; Pigweed plant response rating (0 to 100 scale) ([15]; 31 g ai/ha): 0; Pigweed plant response rating (0 to 100 scale) ([15]; 125 g ai/ha): 0; Ragweed plant response rating (0 to 100 scale) ([16]; 31 g ai/ha): 0; Ragweed plant response rating (0 to 100 scale) ([16]; 125 g ai/ha): 0; Plant response rating, Barnyardgrass (Flood) [17]: 0; Plant response rating, Rice (Flood) [18]: 0; Plant response rating, Ducksalad (Flood) [19]: 0; Plant response rating, Sedge, Umbrella (Flood) [20]: 0
2 | CO/N=C(\c1ccc(F)c(Cl)c1)c1c(O)c(C)nn(C)c1=O [Compound 219] | 10 | 50 | 20 | 30 | 0 | 0 | 0 | 40 | 20 | 40 | 0 | 0 | 0 | 0 | 0 | 10 | 0 | 0 | 50 | 60 | Kochia plant response rating (0 to 100 scale) ([11]; 31 g ai/ha): 0; Kochia plant response rating (0 to 100 scale) ([11]; 125 g ai/ha): 0; Barnyardgrass plant response rating (0 to 100 scale) ([12]; 31 g ai/ha): 0; Barnyardgrass plant response rating (0 to 100 scale) ([12]; 125 g ai/ha): 0; Foxtail, Giant plant response rating (0 to 100 scale) ([13]; 31 g ai/ha): 0; Foxtail, Giant plant response rating (0 to 100 scale) ([13]; 125 g ai/ha): 0; Ryegrass, Italian plant response rating (0 to 100 scale) ([14]; 31 g ai/ha): 0; Ryegrass, Italian plant response rating (0 to 100 scale) ([14]; 125 g ai/ha): 0; Pigweed plant response rating (0 to 100 scale) ([15]; 31 g ai/ha): 0; Pigweed plant response rating (0 to 100 scale) ([15]; 125 g ai/ha): 10; Ragweed plant response rating (0 to 100 scale) ([16]; 31 g ai/ha): 0; Ragweed plant response rating (0 to 100 scale) ([16]; 125 g ai/ha): 0; Plant response rating, Barnyardgrass (Flood) [17]: 0; Plant response rating, Rice (Flood) [18]: 0; Plant response rating, Ducksalad (Flood) [19]: 0; Plant response rating, Sedge, Umbrella (Flood) [20]: 0
